# Source: ChEMBL document CHEMBL3885881, “DrugMatrix”
# Species: Rattus norvegicus
# Assay: DrugMatrix - Regimen: Daily Repeat
# Type: toxicity, organism-based, Sprague-Dawley
# Parameters: regimen Daily Repeat, gender Male, age 6-8 weeks
# Settings: in vivo, po, route oral GAVAGE, […]; for ABSOLUTE BASOPHIL / ABSOLUTE EOSINOPHIL / ABSOLUTE LYMPHOCYTE / ABSOLUTE MONOCYTE / ABSOLUTE SEGMENTED NEUTROPHIL / BASOPHIL / EOSINOPHIL / ERYTHROCYTE COUNT / HEMATOCRIT / HEMOGLOBIN / LEUKOCYTE COUNT / LYMPHOCYTE / MEAN CORPUSCULAR HEMOGLOBIN / MEAN CORPUSCULAR HEMOGLOBIN CONCENTRATION / MEAN CORPUSCULAR VOLUME / MONOCYTE / NEUTROPHIL / NUCLEATED RED BLOOD CELLS / PLATELET COUNT: tissue Blood; for ALANINE AMINOTRANSFERASE / ALBUMIN / ALKALINE PHOSPHATASE / ASPARTATE AMINOTRANSFERASE / BLOOD UREA NITROGEN / CARBON DIOXIDE / CHLORIDE / CHOLESTEROL / CREATINE PHOSPHOKINASE / CREATININE / GLUCOSE / LACTATE DEHYDROGENASE / LIPASE / PHOSPHORUS / POTASSIUM / SODIUM / TOTAL BILIRUBIN / TOTAL PROTEIN / URIC ACID: tissue Plasma
# [1] = 0 mg/kg, 72 h, dose level Control, time 3 day
# [2] = 0 mg/kg, 120 h, dose level Control, time 5 day
# [3] = 0 mg/kg, dose level Control, time 28 day
# [4] = 56 mg/kg, 72 h, dose level Low, time 3 day
compound,measurement,setting,value
NC[C@@H]1O[C@H](O[C@H]2[C@@H](O)[C@H](O[C@@H]3[C@@H](O)[C@H](N)C[C@H](N)[C@H]3O[C@H]3O[C@H](CN)[C@@H](O)[C@H](O)[C@H]3N)O[C@@H]2CO)[C@H](N)[C@@H](O)[C@@H]1O [FRAMYCETIN],ABSOLUTE BASOPHIL,[1],0 CELLS/uL
same,ABSOLUTE EOSINOPHIL,[1],33 CELLS/uL
same,ABSOLUTE LYMPHOCYTE,[1],9048.5 CELLS/uL
same,ABSOLUTE MONOCYTE,[1],80.17 CELLS/uL
same,ABSOLUTE SEGMENTED NEUTROPHIL,[1],1521.67 CELLS/uL
same,BASOPHIL,[1],0%
same,EOSINOPHIL,[1],0.17%
same,ERYTHROCYTE COUNT,[1],5.46 x10E6/uL
same,HEMATOCRIT,[1],32.87%
same,HEMOGLOBIN,[1],12.95 G/DL
same,LEUKOCYTE COUNT,[1],10.68 x10E3/uL
same,LYMPHOCYTE,[1],86.67%
same,MEAN CORPUSCULAR HEMOGLOBIN,[1],23.72 pg
same,MEAN CORPUSCULAR HEMOGLOBIN CONCENTRATION,[1],39.4 G/DL
same,MEAN CORPUSCULAR VOLUME,[1],60.18 fL
same,MONOCYTE,[1],0.83%
same,NEUTROPHIL,[1],12.33%
same,NUCLEATED RED BLOOD CELLS,[1],0 /100WBC
same,PLATELET COUNT,[1],1211.33 x10E3/uL
same,ALANINE AMINOTRANSFERASE,[1],76.67 u/L
same,ALBUMIN,[1],3.93 G/DL
same,ALKALINE PHOSPHATASE,[1],317.17 u/L
same,ASPARTATE AMINOTRANSFERASE,[1],81.17 u/L
same,BLOOD UREA NITROGEN,[1],12.33 mg/dL
same,CARBON DIOXIDE,[1],31.17 mmol/L
same,CHLORIDE,[1],98.33 MEQ/L
same,CHOLESTEROL,[1],67.17 mg/dL
same,CREATINE PHOSPHOKINASE,[1],312.33 u/L
same,CREATININE,[1],0.19 mg/dL
same,GLUCOSE,[1],165.5 mg/dL
same,LACTATE DEHYDROGENASE,[1],94.5 u/L
same,LIPASE,[1],9.83 u/L
same,PHOSPHORUS,[1],10.1 mg/dL
same,POTASSIUM,[1],5.16 MEQ/L
same,SODIUM,[1],143.02 MEQ/L
same,TOTAL BILIRUBIN,[1],0.2 mg/dL
same,TOTAL PROTEIN,[1],5.88 G/DL
same,URIC ACID,[1],0.68 mg/dL
same,ABSOLUTE BASOPHIL,[2],0 CELLS/uL
same,ABSOLUTE EOSINOPHIL,[2],14.67 CELLS/uL
same,ABSOLUTE LYMPHOCYTE,[2],9629.83 CELLS/uL
same,ABSOLUTE MONOCYTE,[2],72.5 CELLS/uL
same,ABSOLUTE SEGMENTED NEUTROPHIL,[2],1049.67 CELLS/uL
same,NUCLEATED RED BLOOD CELLS,[2],0.17 /100WBC
same,CARBON DIOXIDE,[2],26.4 mmol/L
same,LACTATE DEHYDROGENASE,[2],83.5 u/L
same,LIPASE,[2],85.83 u/L
same,URIC ACID,[2],0.8 mg/dL
same,BASOPHIL,[3],0.42%
same,EOSINOPHIL,[3],0.58%
same,ERYTHROCYTE COUNT,[3],8.06 x10E6/uL
same,HEMATOCRIT,[3],48.44%
same,HEMOGLOBIN,[3],16.34 G/DL
same,LEUKOCYTE COUNT,[3],13.04 x10E3/uL
same,LYMPHOCYTE,[3],85.12%
same,MEAN CORPUSCULAR HEMOGLOBIN,[3],20.26 pg
same,MEAN CORPUSCULAR HEMOGLOBIN CONCENTRATION,[3],33.74 G/DL
same,MEAN CORPUSCULAR VOLUME,[3],60.1 fL
same,MONOCYTE,[3],1.44%
same,NEUTROPHIL,[3],11.28%
same,PLATELET COUNT,[3],1226 x10E3/uL
same,ALANINE AMINOTRANSFERASE,[3],28.6 u/L
same,ALBUMIN,[3],3.94 G/DL
same,ALKALINE PHOSPHATASE,[3],254.6 u/L
same,ASPARTATE AMINOTRANSFERASE,[3],67.8 u/L
same,BLOOD UREA NITROGEN,[3],10.4 mg/dL
same,CHLORIDE,[3],104.6 MEQ/L
same,CHOLESTEROL,[3],57.6 mg/dL
same,CREATINE PHOSPHOKINASE,[3],224.8 u/L
same,CREATININE,[3],0.4 mg/dL
same,GLUCOSE,[3],140.6 mg/dL
same,PHOSPHORUS,[3],10.66 mg/dL
same,POTASSIUM,[3],6.58 MEQ/L
same,SODIUM,[3],148.6 MEQ/L
same,TOTAL BILIRUBIN,[3],0.24 mg/dL
same,TOTAL PROTEIN,[3],6.64 G/DL
same,ABSOLUTE BASOPHIL,[4],0 CELLS/uL
same,ABSOLUTE EOSINOPHIL,[4],0 CELLS/uL
same,ABSOLUTE LYMPHOCYTE,[4],8427.33 CELLS/uL
same,ABSOLUTE MONOCYTE,[4],92.67 CELLS/uL
same,ABSOLUTE SEGMENTED NEUTROPHIL,[4],980 CELLS/uL
same,BASOPHIL,[4],0%
same,EOSINOPHIL,[4],0%
same,ERYTHROCYTE COUNT,[4],5.46 x10E6/uL
same,HEMATOCRIT,[4],33.8%
same,HEMOGLOBIN,[4],13.4 G/DL
same,LEUKOCYTE COUNT,[4],9.5 x10E3/uL
same,LYMPHOCYTE,[4],88.67%
same,MEAN CORPUSCULAR HEMOGLOBIN,[4],24.57 pg
same,MEAN CORPUSCULAR HEMOGLOBIN CONCENTRATION,[4],39.63 G/DL
same,MEAN CORPUSCULAR VOLUME,[4],61.9 fL
same,MONOCYTE,[4],1%
same,NEUTROPHIL,[4],10.33%
same,NUCLEATED RED BLOOD CELLS,[4],0 /100WBC
same,PLATELET COUNT,[4],1108.33 x10E3/uL
same,ALANINE AMINOTRANSFERASE,[4],81 u/L
same,ALBUMIN,[4],4.1 G/DL
same,ALKALINE PHOSPHATASE,[4],367.33 u/L
same,ASPARTATE AMINOTRANSFERASE,[4],87 u/L
same,BLOOD UREA NITROGEN,[4],11.67 mg/dL
same,CARBON DIOXIDE,[4],33.33 mmol/L
same,CHLORIDE,[4],97 MEQ/L
same,CHOLESTEROL,[4],89.67 mg/dL
same,CREATINE PHOSPHOKINASE,[4],277.67 u/L
